{"source": "paper PMC9551036", "about": "“A selective and orally bioavailable VHL-recruiting PROTAC achieves SMARCA2 degradation in vivo” (Nature Communications, 2022)", "key": {"PBRM1": {"biological_target": "T1, PBRM1 (Homo sapiens, UniProt Q86U86)", "T1 construct": "endogenous in cells; host or cells: NCI-H1568", "T1 sequence (Q86U86 whole entry)": "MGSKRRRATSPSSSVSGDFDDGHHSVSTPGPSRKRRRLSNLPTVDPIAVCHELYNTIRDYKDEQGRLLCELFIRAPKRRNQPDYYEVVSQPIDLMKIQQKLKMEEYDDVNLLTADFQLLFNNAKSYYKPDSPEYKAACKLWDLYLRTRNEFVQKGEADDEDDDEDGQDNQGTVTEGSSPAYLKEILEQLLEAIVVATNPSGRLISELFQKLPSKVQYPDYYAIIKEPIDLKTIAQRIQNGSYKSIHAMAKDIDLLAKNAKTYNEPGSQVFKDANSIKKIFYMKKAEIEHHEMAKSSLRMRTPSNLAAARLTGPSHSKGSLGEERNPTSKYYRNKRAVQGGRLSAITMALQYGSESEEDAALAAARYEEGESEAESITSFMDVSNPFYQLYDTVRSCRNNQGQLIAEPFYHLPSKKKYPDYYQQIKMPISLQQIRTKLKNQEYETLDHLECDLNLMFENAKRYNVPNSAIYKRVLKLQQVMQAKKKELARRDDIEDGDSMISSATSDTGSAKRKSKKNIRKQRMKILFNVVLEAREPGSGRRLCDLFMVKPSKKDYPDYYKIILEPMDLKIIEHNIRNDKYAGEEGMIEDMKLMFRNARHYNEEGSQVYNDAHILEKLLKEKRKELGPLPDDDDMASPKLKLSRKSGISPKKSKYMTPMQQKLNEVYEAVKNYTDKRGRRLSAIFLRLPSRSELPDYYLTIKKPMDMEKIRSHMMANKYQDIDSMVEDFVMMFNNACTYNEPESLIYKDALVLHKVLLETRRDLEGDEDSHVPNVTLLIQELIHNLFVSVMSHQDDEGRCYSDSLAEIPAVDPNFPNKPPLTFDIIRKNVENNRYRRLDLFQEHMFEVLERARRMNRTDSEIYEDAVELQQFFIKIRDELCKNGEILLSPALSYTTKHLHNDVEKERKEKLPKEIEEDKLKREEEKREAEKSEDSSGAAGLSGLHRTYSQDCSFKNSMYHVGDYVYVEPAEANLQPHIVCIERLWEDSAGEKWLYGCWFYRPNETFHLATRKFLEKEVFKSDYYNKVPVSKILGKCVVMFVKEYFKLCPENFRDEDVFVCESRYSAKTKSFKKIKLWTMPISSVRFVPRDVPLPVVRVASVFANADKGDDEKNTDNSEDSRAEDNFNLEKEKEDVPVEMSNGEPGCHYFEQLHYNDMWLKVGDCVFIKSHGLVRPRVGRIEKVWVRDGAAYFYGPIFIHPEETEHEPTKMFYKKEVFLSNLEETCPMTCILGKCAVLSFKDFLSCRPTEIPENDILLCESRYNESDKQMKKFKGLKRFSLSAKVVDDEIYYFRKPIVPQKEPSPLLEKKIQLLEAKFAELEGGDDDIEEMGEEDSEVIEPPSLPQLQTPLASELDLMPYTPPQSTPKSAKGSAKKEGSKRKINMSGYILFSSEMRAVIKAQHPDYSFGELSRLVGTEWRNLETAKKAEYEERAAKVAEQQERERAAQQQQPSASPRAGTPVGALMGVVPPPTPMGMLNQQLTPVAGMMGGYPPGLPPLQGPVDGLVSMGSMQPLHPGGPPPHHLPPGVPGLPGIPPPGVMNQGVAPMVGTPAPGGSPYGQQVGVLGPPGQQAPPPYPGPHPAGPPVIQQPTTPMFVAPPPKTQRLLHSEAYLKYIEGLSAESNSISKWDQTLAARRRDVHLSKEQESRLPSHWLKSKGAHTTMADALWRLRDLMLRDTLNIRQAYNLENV", "experiment": "Western blot of PBRM1 degradation in NCI-H1568 cells", "assay_type": "cell-based", "conditions": "SuppFig3b, per replicate", "description": "(§1) Cells were seeded into 6-well plates 24 h before treatment. Next day, several wells were treated with compounds or DMSO as indicated, washed with PBS and lysed with lysis buffer (1% Triton X-100, 150 mM NaCl, 1 mM EDTA, 50 mM Tris pH 7.4, protease inhibitor cocktail (Roche), 50 units/mL benzonase nuclease (Sigma)). Lysates were cleared by centrifugation at 4 °C, at 15,800 × g for 10 min and the supernatants stored at −20 °C. Protein concentration was determined by BCA assay (Pierce) and the absorbance at 562 nm measured by spectrophotometry (NanoDrop ND1000). […] Western blot images were obtained through detection of SMARCA2 (Sigma #HPA029981 RRID:AB_10602406 1:1000), SMARCA4 (Abcam #ab108318 clone EPR3912 RRID:AB_10889900 1:1000), PBRM1 (Bethyl Laboratories #A301-591A RRID:AB_1078808 1:1000), β-actin (Cell Signalling #4970 clone 13E5 RRID:AB_2223172 1:2500) and GAPDH (Abcam #ab9485 RRID:AB_307275 1:2500) antibodies with IRDye 800CW donkey anti-rabbit secondary antibody (LI-COR #926-32213 RRID:AB_621848 1:10000) using a ChemiDoc MP imaging system (Bio-Rad). Western blots were quantified using Image Studio Lite (Licor, version 5.2) with normalisation to loading control and DMSO and further analysed using GraphPad Prism (version 9.2.0)."}, "A549 tumour xenograft": {"tested_on": "A549 tumour xenograft", "experiment": "A549 xenograft tumour growth", "assay_type": "in vivo, mouse", "conditions": "for Tumor volume: Fig4g, 80 mg/kg, qd, per animal", "description": "(§2) To establish subcutaneous tumours, mice were injected with 5 × 10^6 NCI-H1568 in PBS with 5% FCS or with 1 × 10^7 A549 cells in PBS with 5% FCS. Tumour diameters were measured with a caliper three times a week. The volume of each tumour (in mm^3) was calculated according to the formula [tumour volume = length × diameter^2 × π/6]. To monitor side effects of treatment, mice were inspected daily for abnormalities and body weight was determined daily after the start of treatment. Animals were sacrificed when the tumours reached a size of 1500 mm^3. Mice were randomised into treatment groups when the average tumour size reached ~210–220 mm^3. Group sizes were calculated individually for each tumour model based on tumour growth during model establishment experiments. A power analysis was performed using a sample size calculator (https://www.stat.ubc.ca/~rollin/stats/ssize/n2.html). For both models used in the study, 10 mice per group were used for each experiment. All administrations were dosed with 10 ml/kg (s.c. and oral). Control mice were dosed subcutaneously with 10% HP-β-CD in 50% Ringer solution and orally with 15% HP-β-CD, that means the control mouse treatment was corresponding to the solvent of the compounds. Compound 6 was dosed subcutaneously either in a d1-4 q3d, d6-8 q2d, d11-13 q2d treatment (Treatment 1) or a q3 or 4d treatment (Treatment 2).\nFor the evaluation of the statistical significance of tumour growth inhibition, a one-tailed nonparametric Mann-Whitney-Wilcoxon U-test was performed, based on the hypothesis that an effect would only be measurable in one direction (i.e. expectation of tumour inhibition but not tumour stimulation). Analysis was performed on the day indicated for each experiment. The p values obtained from the U-test were adjusted using the Bonferroni-Holm correction. By convention, p values ≤0.05 indicate significance of differences."}, "SMARCA2 [1]": {"biological_target": "T2, SMARCA2 (Homo sapiens, UniProt P51531)", "T2 sequence (P51531 whole entry)": "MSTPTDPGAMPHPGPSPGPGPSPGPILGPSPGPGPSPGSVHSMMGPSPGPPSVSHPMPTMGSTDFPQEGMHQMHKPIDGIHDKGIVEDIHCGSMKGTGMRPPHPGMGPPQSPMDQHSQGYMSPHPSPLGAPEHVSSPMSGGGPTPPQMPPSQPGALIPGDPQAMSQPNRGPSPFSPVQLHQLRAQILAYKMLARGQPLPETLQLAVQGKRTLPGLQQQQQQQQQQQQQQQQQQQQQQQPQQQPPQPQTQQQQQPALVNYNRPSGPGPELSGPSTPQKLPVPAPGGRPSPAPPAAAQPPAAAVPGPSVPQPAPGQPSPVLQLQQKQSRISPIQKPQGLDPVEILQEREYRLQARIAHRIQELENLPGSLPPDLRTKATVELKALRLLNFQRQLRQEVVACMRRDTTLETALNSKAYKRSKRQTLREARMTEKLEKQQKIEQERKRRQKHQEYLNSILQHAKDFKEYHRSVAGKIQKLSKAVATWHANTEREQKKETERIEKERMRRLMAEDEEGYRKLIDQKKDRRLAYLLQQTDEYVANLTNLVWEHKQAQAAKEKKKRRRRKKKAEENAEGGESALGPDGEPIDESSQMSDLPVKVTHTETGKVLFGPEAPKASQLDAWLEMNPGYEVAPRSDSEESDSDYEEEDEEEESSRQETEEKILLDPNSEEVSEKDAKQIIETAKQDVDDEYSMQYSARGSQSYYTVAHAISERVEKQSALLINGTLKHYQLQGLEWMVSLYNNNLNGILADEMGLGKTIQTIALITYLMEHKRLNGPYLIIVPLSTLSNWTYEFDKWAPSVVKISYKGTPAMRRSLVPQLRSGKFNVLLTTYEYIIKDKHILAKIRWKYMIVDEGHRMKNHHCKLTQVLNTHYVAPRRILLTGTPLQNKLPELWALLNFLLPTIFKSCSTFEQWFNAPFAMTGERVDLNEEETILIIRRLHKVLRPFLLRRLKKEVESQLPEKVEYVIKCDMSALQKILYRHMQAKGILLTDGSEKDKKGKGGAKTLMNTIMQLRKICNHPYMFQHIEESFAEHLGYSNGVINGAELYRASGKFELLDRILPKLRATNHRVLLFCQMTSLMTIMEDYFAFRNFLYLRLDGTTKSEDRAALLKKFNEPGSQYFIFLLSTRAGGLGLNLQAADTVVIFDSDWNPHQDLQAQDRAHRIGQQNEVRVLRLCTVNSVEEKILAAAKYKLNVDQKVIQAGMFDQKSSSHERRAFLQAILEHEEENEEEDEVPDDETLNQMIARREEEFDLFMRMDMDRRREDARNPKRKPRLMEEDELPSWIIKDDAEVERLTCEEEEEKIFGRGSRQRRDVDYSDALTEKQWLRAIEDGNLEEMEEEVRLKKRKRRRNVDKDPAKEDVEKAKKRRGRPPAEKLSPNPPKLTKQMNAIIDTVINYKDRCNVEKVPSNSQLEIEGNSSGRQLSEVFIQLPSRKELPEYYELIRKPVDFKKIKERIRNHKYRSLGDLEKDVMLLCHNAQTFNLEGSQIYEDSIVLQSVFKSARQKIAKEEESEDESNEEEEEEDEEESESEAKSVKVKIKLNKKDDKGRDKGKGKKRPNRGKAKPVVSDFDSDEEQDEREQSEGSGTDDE", "experiment": "SMARCA2 IHC in A549 xenograft tumours", "assay_type": "in vivo, mouse", "set-up": "from tissue; host or cells: subcutaneous NCI-H1568 or A549 xenograft tumours in BomTac:NMRI-Foxn1nu mice", "description": "as §2\nXenograft samples were fixed in 10% formaldehyde for 24 h and later moved to ethanol and embedded in paraffin. 2 µm-thick sections were cut using a microtome, then placed on glass slides ([…], silan printer slides PR-S:001), and subsequently dewaxed. […] All slides were reviewed and evaluated for quality by a board-certified MD specialist in Anatomic Pathology (PC). […] A positivity threshold for DAB OD was determined by normalisation with respect to the DAB OD as calculated from bona fide negative tissue (e.g. murine stroma as background). The average, background-normalised DAB OD of tumour cell nuclei was used to quantitate SMARCA2 expression in each xenograft sample."}, "SMARCA2 [2]": {"biological_target": "T2, SMARCA2", "experiment": "Western blot of SMARCA2 degradation in NCI-H1568 cells", "assay_type": "cell-based", "set-up": "endogenous in cells; host or cells: RKO, NCI-H1568, A549, HCT116, LU99, HCC-364, HCT-15, HCC4006, SK-N-AS", "description": "as §1"}, "[3]": {"conditions": "SuppFig3a, 10 nM, per replicate"}, "[4]": {"conditions": "SuppFig3a, 100 nM, per replicate"}, "[5]": {"conditions": "SuppFig3a, 1000 nM, per replicate"}, "[6]": {"conditions": "SuppFig3c, compound 100 nM + MG132 10 uM"}, "[7]": {"conditions": "SuppFig3c, compound 100 nM + VH298 10 uM"}, "[8]": {"conditions": "SuppFig3c, compound 100 nM alone"}}, "note": "“And” between values parts separate entries of the source, which are not always exact repeats. Equal values may be shown once. “Also recorded” adds a separate entry of the source.", "data": [{"smiles": "Cc1ncsc1-c1ccc(C(CCC(C)CCN2CCC(c3ccc4c(c3)n(C3CCCC3)c3nc(=O)c5c(Br)cccc5n43)CC2)NC(=O)C2CC(O)CN2C(=O)C(NC(=O)C2(F)CC2)C(C)(C)C)cc1", "note": "(stereo not shown) [ACBI2]", "values": [{"measurement": "PBRM1 degradation, % DMSO", "setting": "PBRM1; 1 nM", "result": "23.1362 % DMSO and 79.6814 % DMSO and 32.6932 % DMSO"}, {"measurement": "PBRM1 degradation, % DMSO", "setting": "PBRM1; 10 nM", "result": "3.304 % DMSO and 17.3996 % DMSO and 0.6905 % DMSO"}, {"measurement": "PBRM1 degradation, % DMSO", "setting": "PBRM1; 100 nM", "result": "2.804 % DMSO and 11.7415 % DMSO and 30.9172 % DMSO"}, {"measurement": "PBRM1 degradation, % DMSO", "setting": "PBRM1; 1000 nM", "result": "14.3896 % DMSO and 34.4025 % DMSO and 4.024 % DMSO"}, {"measurement": "TGI", "setting": "A549 tumour xenograft; A549 xenograft, 80 mg/kg p.o. once daily, day 21", "result": 47, "unit": "%"}, {"measurement": "Tumor volume", "setting": "A549 tumour xenograft; day 1", "result": "123.81 mm3 and 132.68 mm3 and 160.75 mm3 and 185.14 mm3 and 199.53 mm3 and 221.26 mm3 and 231.03 mm3 and 289.04 mm3 and 318.82 mm3 and 328.35 mm3"}, {"measurement": "Tumor volume", "setting": "A549 tumour xenograft; day 4", "result": "227.06 mm3 and 262.12 mm3 and 188.92 mm3 and 409.05 mm3 and 274.16 mm3 and 314.25 mm3 and 306.21 mm3 and 369.92 mm3 and 481.58 mm3 and 366.82 mm3"}, {"measurement": "Tumor volume", "setting": "A549 tumour xenograft; day 7", "result": "231.98 mm3 and 243.18 mm3 and 196.23 mm3 and 274.16 mm3 and 253.11 mm3 and 344.34 mm3 and 317.61 mm3 and 448.55 mm3 and 592.88 mm3 and 312.54 mm3"}, {"measurement": "Tumor volume", "setting": "A549 tumour xenograft; day 9", "result": "261.94 mm3 and 301.83 mm3 and 219.73 mm3 and 302.82 mm3 and 326.12 mm3 and 416.63 mm3 and 335.28 mm3 and 487.15 mm3 and 592.89 mm3 and 371.89 mm3"}, {"measurement": "Tumor volume", "setting": "A549 tumour xenograft; day 11", "result": "258.58 mm3 and 202.63 mm3 and 223.15 mm3 and 242.18 mm3 and 278.14 mm3 and 355.98 mm3 and 334.2 mm3 and 464.77 mm3 and 688.26 mm3 and 480.94 mm3"}, {"measurement": "Tumor volume", "setting": "A549 tumour xenograft; day 16", "result": "301.85 mm3 and 268.43 mm3 and 297.84 mm3 and 244.81 mm3 and 221.75 mm3 and 393.39 mm3 and 329.71 mm3 and 573.4 mm3 and 713.65 mm3 and 552.3 mm3"}, {"measurement": "Tumor volume", "setting": "A549 tumour xenograft; day 18", "result": "316.56 mm3 and 265.75 mm3 and 265.54 mm3 and 297.93 mm3 and 440.11 mm3 and 297.45 mm3 and 522.76 mm3 and 814.33 mm3 and 590.82 mm3"}, {"measurement": "Tumor volume", "setting": "A549 tumour xenograft; day 21", "result": "331.26 mm3 and 257.14 mm3 and 246.03 mm3 and 472.38 mm3 and 341.87 mm3 and 428.61 mm3 and 821.5 mm3 and 487.26 mm3"}, {"measurement": "Tumor volume", "setting": "A549 tumour xenograft; day 23", "result": "322.32 mm3 and 225.79 mm3 and 259.68 mm3 and 527.19 mm3 and 270.43 mm3 and 777.27 mm3 and 455.64 mm3"}, {"measurement": "SMARCA2 staining in tumours at the end of the efficacy study", "setting": "SMARCA2 [1]; A549 xenograft, 80 mg/kg p.o. once daily, 80 mg/kg", "result": "reduced to background levels; also recorded: decreased to background levels"}, {"measurement": "SMARCA2 (OD, normalised)", "setting": "SMARCA2 [1]; Fig4h, 80 mg/kg po qd, background OD 0.05910 subtracted", "result": 0.00000}, {"measurement": "Avg Stain 1 Nuclear OD", "setting": "SMARCA2 [1]; Fig4h, 80 mg/kg po qd, per animal", "result": "0.04104 and 0.05262 and 0.08316 and 0.0589 and 0.03791 and 0.04411"}, {"measurement": "SMARCA2 degradation, % DMSO", "setting": "SMARCA2 [2]; SuppFig3a, 1 nM, per replicate", "result": "73.2377 % DMSO and 115.98 % DMSO and 86.1519 % DMSO"}, {"measurement": "smarca2/actin norm to DMSO", "setting": "SMARCA2 [2]; SuppFig3a, 1 nM, per replicate", "result": "0.7324 and 1.1598 and 0.8615"}, {"measurement": "SMARCA2 degradation, % DMSO", "setting": "SMARCA2 [2]; [3]", "result": "22.5404 % DMSO and 46.107 % DMSO and 14.5628 % DMSO"}, {"measurement": "smarca2/actin norm to DMSO", "setting": "SMARCA2 [2]; [3]", "result": "0.2254 and 0.4611 and 0.1456"}, {"measurement": "SMARCA2 degradation, % DMSO", "setting": "SMARCA2 [2]; [4]", "result": "4.651 % DMSO and 9.376 % DMSO and 28.142 % DMSO"}, {"measurement": "smarca2/actin norm to DMSO", "setting": "SMARCA2 [2]; [4]", "result": "0.04651 and 0.09376 and 0.2814"}, {"measurement": "SMARCA2 degradation, % DMSO", "setting": "SMARCA2 [2]; [5]", "result": "10.8582 % DMSO and 28.1242 % DMSO and 17.6912 % DMSO"}, {"measurement": "smarca2/actin norm to DMSO", "setting": "SMARCA2 [2]; [5]", "result": "0.1086 and 0.2812 and 0.1769"}, {"measurement": "SMARCA2 - combination with inhibitors, % DMSO", "setting": "SMARCA2 [2]; [6]", "result": "144.315 % DMSO and 128.607 % DMSO and 88.3654 % DMSO"}, {"measurement": "smarca2/actin norm to DMSO", "setting": "SMARCA2 [2]; [6]", "result": "1.443 and 1.286 and 0.8837"}, {"measurement": "SMARCA2 - combination with inhibitors, % DMSO", "setting": "SMARCA2 [2]; [7]", "result": "71.7463 % DMSO and 98.6474 % DMSO and 62.3416 % DMSO"}, {"measurement": "smarca2/actin norm to DMSO", "setting": "SMARCA2 [2]; [7]", "result": "0.7175 and 0.9865 and 0.6234"}, {"measurement": "SMARCA2 - combination with inhibitors, % DMSO", "setting": "SMARCA2 [2]; [8]", "result": "15.1306 % DMSO and 12.518 % DMSO and 13.0375 % DMSO"}, {"measurement": "smarca2/actin norm to DMSO", "setting": "SMARCA2 [2]; [8]", "result": "0.1513 and 0.1252 and 0.1304"}]}]}
